From patent US20080176781A1, “Perfumes for linear citrus release in rinse-off systems” (priority 2007, published 2008) come the findings set out here.

SMILES strings stand for the structures.

The experiment in a line: Odor detection threshold (ODT). Also on record: unit not given here. The source says:
Within these defined water-release groups, odorants are then further described based on their experimentally determined odor detection thresholds (ODT) to further characterize the odor impact or olfactive intensity of a citrus and other olfactive types within the herein-described released group of odorants.
Upon their release in headspace, odorants are detected based on their odor detection threshold values. Odor detection thresholds are defined as the lowest concentration of odorants in a selected medium (air or water) to be detected. By including odor values of odorants in the model, one can further improve on the values for predicted performance of once odorants are released from the partition into the air.
Various databases for experimental odor detection threshold values in various partitions such as water and air are available. See Compilation of Odor and Taste Threshold Values Data, American Society for Testing and Materials, F. A. Fazzalari Editor; Booleans Aroma Chemical Information Service (BACIS)).

Compound `C=CC(C)(O)CCC=C(C)CC` (mixture of isomers) [ETHYL LINALOOL] had an odt (Table 17) of 120.

For the compound `CCCCCCCCCC=O` [ALDEHYDE C10 (DECANAL), DECANAL], under “Table 15”, the odt is reported as 6.7. Consider `CCCCCCCC=O` [ALDEHYDE C 8 (OCTANAL), OCTANAL], for which the odt by setting is: (Table 15) 4.6; (Table 17) 4.6. As for `C=CCOC(=O)CCC1CCCCC1` [ALLYL CYCLOHEXYL PROPIONATE], the odt (Table 13) worked out at 31.00. Still for that read-out and setting: the value for `CC/C=C\CCOC(=O)c1ccccc1O` [CIS-3-HEXENYL SALICYLATE] was 1.90.

`CCCCCCCCCCCC#N` [LAURONITRILE] had an odt (Table 13) of 5.70. Compound `CCCCCCC#CC(=O)OC` [METHYL OCTINE CARBONATE] displayed an odt (Table 17) of 9.7.

The compound `CCCCCCCCCCC=CC#N` [TRIDECEN 2 NITRILE] showed an odt (Table 15) of 6.7.

As for `CCC=C(C)C(O)CCCCC` (centres unmarked) [UNDECAVERTOL, 4-Methyl-3-decen-5-ol], the odt is on record as 26 (Table 15) and 26 (Table 17).
